Reference: patent US20160130278A1 (TAISHO PHARMACEUTICAL CO., LTD, priority 2013, published 2016)

target: T1, human type 1 glycine transporter (GlyT1) (Homo sapiens, UniProt P48067); experiment: Glycine uptake inhibition experiment ([3H]glycine uptake); type: cell-based; settings: GlyT1
T1 construct: T98G cells (glioma cells) expressing human type 1 glycine transporter (GlyT1) were used
T1 sequence (P48067 1-706): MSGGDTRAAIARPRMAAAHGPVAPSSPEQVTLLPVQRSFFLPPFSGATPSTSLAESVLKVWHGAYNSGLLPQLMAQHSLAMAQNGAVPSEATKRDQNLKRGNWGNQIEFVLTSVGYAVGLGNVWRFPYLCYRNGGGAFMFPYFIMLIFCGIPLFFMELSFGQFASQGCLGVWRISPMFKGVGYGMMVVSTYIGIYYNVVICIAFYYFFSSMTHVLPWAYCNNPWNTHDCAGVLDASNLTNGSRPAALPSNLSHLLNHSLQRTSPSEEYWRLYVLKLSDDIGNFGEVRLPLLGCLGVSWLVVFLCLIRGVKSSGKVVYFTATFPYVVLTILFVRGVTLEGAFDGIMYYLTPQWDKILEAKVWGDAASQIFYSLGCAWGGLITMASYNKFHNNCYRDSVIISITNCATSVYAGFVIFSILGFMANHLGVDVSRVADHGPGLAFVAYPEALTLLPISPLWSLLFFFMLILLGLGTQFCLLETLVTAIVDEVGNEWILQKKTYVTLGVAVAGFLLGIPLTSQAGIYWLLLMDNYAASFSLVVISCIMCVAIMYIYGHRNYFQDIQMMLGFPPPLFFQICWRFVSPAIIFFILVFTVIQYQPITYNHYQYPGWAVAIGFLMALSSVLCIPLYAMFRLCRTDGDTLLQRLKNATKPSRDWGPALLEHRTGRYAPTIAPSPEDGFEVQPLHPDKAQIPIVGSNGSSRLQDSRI
Summary of the method: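 T98G glioma cells expressing human GlyT1 were pretreated 10 min with compound in HEPES buffer pH 7.4 (0.2% BSA), then incubated with compound plus 250 nM final [3H]glycine for 15 min at room temperature. Intracellular radioactivity was counted after NaOH lysis; 10 μM ALX5407 defined non-specific uptake. IC50 came from 10^−9–10^−5 M curves.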

Structure (SMILES)	IC50
CCn1cc(-c2cccc(C(NC(=O)c3cc(Cl)ccc3Cl)C3(O)CCC(F)(F)CC3)c2)cn1 (single isomer, unassigned) [Compound 193, 2,5-dichloro-N-{(4,4-difluroo-1-hydroxycyclohexyl)[3-(1-ethyl-1H-pyrazol-4-yl)phenyl]methyl}benzamide]	830 nM
CCn1cc(-c2cccc(C(NC(=O)c3cc(Cl)ccc3Cl)C3(O)CCC(F)(F)CC3)c2)cn1 (single isomer, unassigned) [Compound 194, 2,5-dichloro-N-{(4,4-difluoro-1-hydroxycyclohexyl)[3-(1-ethyl-1H-pyrazol-4-yl)phenyl]methyl}benzamide]	760 nM
CCn1cc(-c2cccc(C(NC(=O)c3cccc4ccccc34)C3(O)CCC(F)(F)CC3)c2)cn1 (single isomer, unassigned) [Compound 195, N-{(4,4-difluoro-1-hydroxycyclohexyl)[3-(1-ethyl-1H-pyrazol-4-yl)phenyl]methyl}naphthalene-1-carboxamide]	1100 nM
CCn1cc(-c2cccc(C(NC(=O)c3cccc4ccccc34)C3(O)CCC(F)(F)CC3)c2)cn1 (single isomer, unassigned) [Compound 196, N-{(4,4-difluoro-1-hydroxycyclohexyl)[3-(1-ethyl-1H-pyrazol-4-yl)phenyl]methyl}naphthalene-1-carboxamide]	290 nM
O=C(NC(c1ccccc1Cl)[C@]1(O)CC[C@@H](F)CC1)c1nccc(C(F)(F)F)c1Cl (single isomer, unassigned) [Compound 197, 3-chloro-N-[(2-chlorophenyl)(cis-4-fluoro-1-hydroxycyclohexyl)methyl]-4-(trifluoromethyl)pyridine-2-carboxamide]	53 nM
O=C(NC(c1ccccc1Cl)[C@]1(O)CC[C@H](F)CC1)c1nccc(C(F)(F)F)c1Cl (single isomer, unassigned) [Compound 198, 3-chloro-N-[(2-chlorophenyl)(trans-4-fluoro-1-hydroxycyclohexyl)methyl]-4-(trifluoromethyl)pyridine-2-carboxamide]	200 nM
O=C(NC(c1cccc(Cl)c1F)C1(O)CCC(F)CC1)c1nccc(C(F)(F)F)c1Cl (single isomer, unassigned) [Compound 199, 3-chloro-N-[(3-chloro-2-fluorophenyl)(4-fluoro-1-hydroxycyclohexyl)methyl]-4-(trifluoromethyl)pyridine-2-carboxamide]	82 nM
O=C(NC(c1cccc(Cl)c1F)C1(O)CCC(F)CC1)c1nccc(C(F)(F)F)c1Cl (single isomer, unassigned) [Compound 200, 3-chloro-N-[(3-chloro-2-fluorophenyl)(4-fluoro-1-hydroxycyclohexyl)methyl}-4-(trifluoromethyl)pyridine-2-carboxamide]	64 nM
O=C(NC(c1cccc(Cl)c1F)C1(O)CCC(F)CC1)c1ccnc(C(F)(F)F)c1Cl (single isomer, unassigned) [Compound 201, 3-chloro-N-[(3-chloro-2-fluorophenyl)(4-fluoro-1-hydroxycyclohexyl)methyl]-2-(trifluoromethyl)pyridine-4-carboxamide]	130 nM
O=C(NC(c1cccc(F)c1F)C1(O)CCC(F)CC1)c1nccc(C(F)(F)F)c1Cl (single isomer, unassigned) [Compound 204, 3-chloro-N-[(2,3-difluorophenyl)(4-fluoro-1-hydroxycyclohexyl)methyl]-4-(trifluoromethyl)pyridine-2-carboxamide]	100 nM
O=C(NC(c1ccccc1Cl)[C@]1(O)CC[C@@H](F)CC1)c1nccc(C(F)(F)F)c1Cl (single isomer, unassigned) [Compound 210, 3-chloro-N-[(2-chlorophenyl)(cis-4-fluoro-1-hydroxycyclohexyl)methyl]-4-(trifluoromethyl)pyridine-2-carboxamide]	3200 nM
